{"source": "patent US20100048519A1", "about": "“METHODS OF TREATMENT FOR ULCERATIVE COLITIS USING AMINOSALICYLATE” (priority 2006, published 2010)", "assay_type_in_all_cases": "in vivo, human", "key": {"[1]": {"system": "person diagnosed with moderate Ulcerative colitis", "experiment": "Single-patient treatment examples (Examples 2-5): person diagnosed with moderate ulcerative colitis", "text": "A 70 kg person diagnosed with moderate Ulcerative colitis is prescribed a pharmaceutical oral composition comprising 1.2 g of olsalazine (mol. wt. 302.24), a mesalamine dimer, two tablets to be taken twice daily for a total of 4.8 g/day of the 5-ASA dimer (5-ASA mol. wt.=153.14). The patient takes two tablets of the pharmaceutical in the morning and two tablets in the evening such that about 4.8 g/day of 5-ASA is delivered. The Physician's Global Assessment (PGA) score improves in comparison to baseline and rectal bleeding reduces. A 72 kg person diagnosed with moderate Ulcerative colitis is prescribed a pharmaceutical composition comprising four 1.2 g mesalamine delayed-release tablets, to be taken once daily. The four tablets are taken in the morning so that 4.8 g/day of 5-ASA is delivered. The Physician's Global Assessment (PGA) score improves in comparison to baseline and rectal bleeding reduces. A 75 kg person diagnosed with moderate Ulcerative colitis is prescribed a pharmaceutical oral composition comprising two 1.2 g balsalazide delayed-release tablets, to be taken three times daily for a total of 7.2 g/day of balsalazide; this regimen is calculated to deliver about 3.1 g of 5-ASA. The Physician's Global Assessment (PGA) score improves in comparison to baseline and rectal bleeding reduces. A 71 kg person diagnosed with moderate Ulcerative colitis is prescribed a pharmaceutical composition comprising a rectal mesalamine foam. The foam is administered three times per day (morning, afternoon, and evening) such that 1 g of mesalamine is administered at each interval for a total of 3 g of mesalamine per day. The Physician's Global Assessment (PGA) score improves in comparison to baseline and rectal bleeding is reduced."}, "[2]": {"system": "male patients with moderate ulcerative colitis", "experiment": "Study 1: phase III, multi-center, randomized, double-blind, controlled clinical trial, overall improvement (treatment success) at week 6", "conditions": "moderate disease", "procedure": "(§1) Administration of mesalamine at 4.8 g/day via three daily doses consisting of two, 800 mg dosage tablets provides a clear efficacy benefit over 2.4 g/day of mesalamine given as three daily doses consisting of two, 400 mg dosage tablets and addresses an unmet medical need for men with moderate ulcerative colitis. […] Data from patients with mild to moderate Ulcerative colitis (UC) are combined and analyzed from two phase III, multi-center, randomized, double-blind, controlled clinical trials of identical design assessing the safety and clinical efficacy of the increased dosage of 5-ASA. The two clinical trials are referred to herein as “Study 1” and “Study 2.” The primary endpoint is the percentage of moderate UC patients achieving overall improvement (i.e., treatment success) from baseline at week 6. This is defined as: (1) complete response (remission); complete resolution of signs and symptoms (stool frequency, rectal bleeding, Patient Functional Assessment (PFA) and sigmoidoscopy score) and a Physician's Global Assessment (PGA) of 0; or (2) partial response; improvement from baseline in the PGA score and improvement in at least one clinical assessment (stool frequency, rectal bleeding, PFA or sigmoidoscopy score) and no worsening in any of the other clinical assessments. […]"}, "[3]": {"system": "male patients with moderate ulcerative colitis", "experiment": "Study 2: phase III, multi-center, randomized, double-blind, controlled clinical trial, overall improvement (treatment success) at week 6", "conditions": "moderate disease", "procedure": "as §1"}, "[4]": {"system": "male patients with moderate ulcerative colitis", "experiment": "Bayesian analysis of success rate in men with moderate disease", "procedure": "In addition, a Bayesian analysis is conducted to calculate the probability that treatment with the 4.8 g/day dose in men results in a higher success rate than treatment with the 2.4 g/day dose. This type of analysis considers data from any previous studies conducted using either of the two dose levels. Success rates from male patients with moderate disease at baseline from three previous mesalamine studies are used to estimate the prior distributions for the 2.4 g/day dose and the 4.8 g/day dose. Using these prior distributions and Bayes analyses, the “posterior distribution” is calculated for each dose level based on the data obtained from […]."}, "[5]": {"system": "male patients with moderate ulcerative colitis", "experiment": "Study 1 and Study 2 combined: subgroup analyses and safety", "procedure": "Data from patients with mild to moderate Ulcerative colitis (UC) are combined and analyzed from two phase III, multi-center, randomized, double-blind, controlled clinical trials of identical design assessing the safety and clinical efficacy of the increased dosage of 5-ASA. The two clinical trials are referred to herein as “Study 1” and “Study 2.” Pre-specified subgroup analyses for fifty-four demographic and baseline characteristics are performed in patients with moderately active disease (PGA score=2) to assess consistency of primary endpoint. […] To further evaluate the robustness of the results in men with moderate disease, whisker plots (i.e., point estimate and 95% confidence interval for the difference between the 2.4 g/day group and the 4.8 g/day group) for various subgroups defined on the basis of baseline characteristics (e.g., disease severity, demographic parameters) are prepared. […] FIG. 1 (a) is a subgroup analysis of treatment outcome at week 6 for male patients with moderate disease for Study 1 and Study 2 combined; (b) is a subgroup analysis of treatment outcome at week 6 for female patients with moderate disease for Study 1 and Study 2 combined. FIG. 2 (a) is a subgroup analysis of treatment outcome at week 6 for male patients with moderate disease for Study 1 and Study 2 combined; (b) is a subgroup analysis of treatment outcome at week 6 for female patients with moderate disease for Study 1 and Study 2 combined. FIG. 3 (a) is a subgroup analysis of treatment outcome at week 6 for male patients with moderate disease for Study 1 and Study 2 combined; (b) is a subgroup analysis of treatment outcome at week 6 for female patients with moderate disease for Study 1 and Study 2 combined. […]"}, "[6]": {"conditions": "Example 4, oral, two 1.2 g delayed-release tablets three times daily, 7.2 g/day (about 3.1 g 5-ASA), 75 kg person"}, "[7]": {"conditions": "Example 3, four 1.2 g delayed-release tablets once daily, 4.8 g/day, 72 kg person"}}, "data": [{"smiles": "O=C(O)CCNC(=O)c1ccc(/N=N/c2ccc(O)c(C(=O)O)c2)cc1", "note": "[balsalazide, (E)-5-[[4-[[(2-carboxyethyl)amino]carbonyl]phenyl]azo]-2-hydroxybenzoic acid]", "values": [{"measurement": "Physician's Global Assessment (PGA) score in comparison to baseline", "setting": "[1]; [6]", "result": "improves"}, {"measurement": "Rectal bleeding", "setting": "[1]; [6]", "result": "reduces"}]}, {"smiles": "Nc1ccc(O)c(C(=O)O)c1", "note": "[mesalamine, 5-amino-2-hydroxybenzoic acid]", "values": [{"measurement": "Difference in Proportions (4.8 g/day vs 2.4 g/day)", "setting": "[2]; Primary Analysis", "result": 25.5, "unit": "%"}, {"measurement": "Difference in Proportions (4.8 g/day vs 2.4 g/day)", "setting": "[2]; Set-to-Failure analysis", "result": 27.3, "unit": "%"}, {"measurement": "Difference in Proportions (4.8 g/day vs 2.4 g/day)", "setting": "[3]; Primary Analysis", "result": 27.5, "unit": "%"}, {"measurement": "Difference in Proportions (4.8 g/day vs 2.4 g/day)", "setting": "[3]; Set-to-Failure analysis", "result": 24.8, "unit": "%"}, {"measurement": "Probability of a successful treatment outcome (Bayes analysis)", "setting": "[4]; 2.4 g/day dose, 95% credible interval 35.7%, 58.9%", "result": 47.2, "unit": "%"}, {"measurement": "Probability of a successful treatment outcome (Bayes analysis)", "setting": "[4]; 4.8 g/day dose, 95% credible interval 64.9%, 83.5%", "result": 74.7, "unit": "%"}, {"measurement": "Probability that 4.8 g/day dose results in a higher success rate than 2.4 g/day dose", "setting": "[4]; Bayes analysis", "result": 99.97, "unit": "%"}, {"measurement": "Safety profile of 4.8 g/day regimen versus 2.4 g/day regimen", "setting": "[5]; 4.8 g/day (800 mg tablet) vs 2.4 g/day (400 mg tablet), oral delayed-release", "result": "comparable"}, {"measurement": "Difference between 4.8 g/day group and 2.4 g/day group across pre-specified subgroups", "setting": "[5]; males with moderate disease, combined population, 51 of 54 subgroups", "result": "consistently superior to the 2.4 g/day group"}, {"measurement": "Observed differences in success rate between treatment groups (4.8 vs 2.4 g/day)", "setting": "[5]; men with moderate disease, both studies", "result": "approximately 25%"}, {"measurement": "Physician's Global Assessment (PGA) score in comparison to baseline", "setting": "[1]; [7]", "result": "improves"}, {"measurement": "Rectal bleeding", "setting": "[1]; [7]", "result": "reduces"}]}, {"smiles": "O=C(O)c1cc(N=Nc2ccc(O)c(C(=O)O)c2)ccc1O", "note": "[olsalazine, 3,3′-dicarboxy-4,4′-dihydroxyazobenzene]", "values": [{"measurement": "Physician's Global Assessment (PGA) score in comparison to baseline", "setting": "[1]; Example 2, oral, two 1.2 g tablets twice daily, 4.8 g/day, 70 kg person", "result": "improves"}]}]}
